The target in the assay is TAAR1 (Mus musculus, UniProt Q923Y8). Nature of the assay: TAAR1 radioligand binding, membranes of stably transfected HEK293 cells (mouse). The procedure: For the construction of expression plasmids the coding sequences of human, rat and mouse TAAR 1 were amplified from genomic DNA essentially as described by Lindemann et al.. The Expand High Fidelity PCR System (Roche Diagnostics) was used with 1.5 mM Mg^2+ and purified PCR products were cloned into pCR2.1-TOPO cloning vector (Invitrogen) following the instructions of the manufacturer. PCR products were subcloned into the pIRESneo2 vector (BD Clontech, Palo Alto, Calif.), and expression vectors were sequence verified before introduction in cell lines.
HEK293 cells (ATCC #CRL-1573) were cultured essentially as described Lindemann et al. (2005). For the generation of stably transfected cell lines HEK293 cells were transfected with the pIRESneo2 expression plasmids containing the TAAR coding sequences (described above) with Lipofectamine 2000 (Invitrogen) according to the instructions of the manufacturer, and 24 hrs post transfection the culture medium was supplemented with 1 mg/ml G418 (Sigma, Buchs, Switzerland). After a culture period of about 10 d clones were isolated, expanded and tested for responsiveness to trace amines (all compounds purchased from Sigma) with the cAMP Biotrak Enzyme immunoassay (EIA) System (Amersham) following the non-acetylation EIA procedure provided by the manufacturer.
Cells at confluence were rinsed with ice-cold phosphate buffered saline without Ca^2+ and Mg^2+ containing 10 mM EDTA and pelleted by centrifugation at 1000 rpm for 5 min at 4° C. The pellet was then washed twice with ice-cold phosphate buffered saline and cell pellet was frozen immediately by immersion in liquid nitrogen and stored until use at −80° C. Cell pellet was then suspended in 20 ml HEPES-NaOH (20 mM), pH 7.4 containing 10 mM EDTA, and homogenized with a Polytron (PT 3000, Kinematica) at 10,000 rpm for 10 s. The homogenate was centrifuged at 48,000×g for 30 min at 4° C. and the pellet resuspended in 20 ml HEPES-NaOH (20 mM), pH 7.4 containing 0.1 mM EDTA (buffer A), and homogenized with a Polytron at 10,000 rpm for 10 s. The homogenate was then centrifuged at 48,000×g for 30 min at 4° C. and the pellet resuspended in 20 ml buffer A, and homogenized with a Polytron at 10,000 rpm for 10 s. Protein concentration was determined by the method of Pierce (Rockford, Ill.). The homogenate was then centrifuged at 48,000×g for 10 min at 4° C., resuspended in HEPES-NaOH (20 mM), pH 7.0 including MgCl2 (10 mM) and […] homogenized with a Polytron at 10,000 rpm for 10 s.
Binding assay was performed at 4° C. in a final volume of 1 ml, and with an incubation time of 30 min. […] Non-specific binding was defined as the amount of [^3H]-rac-2-(1,2,3,4-tetrahydro-1-naphthyl)-2-imidazoline bound in the presence of the appropriate unlabelled ligand (10 μM). Competing ligands were tested in a wide range of concentrations (10 pM-30 μM). […] Each experiment was performed in duplicate. All incubations were terminated by rapid filtration through UniFilter-96 plates (Packard Instrument Company) and glass filter GF/C, pre-soaked for at least 2 h in polyethylenimine 0.3%, and using a Filtermate 96 Cell Harvester (Packard Instrument Company). The tubes and filters were then washed 3 times with 1 ml aliquots of cold buffer B. Filters were not dried and soaked in Ultima gold (45 μl/well, Packard Instrument Company) and bound radioactivity was counted by a TopCount Microplate Scintillation Counter (Packard Instrument Company).

Where [1] appears, read: mouse/rat, cell not marked 'rat', radioligand [3H]-rac-2-(1,2,3,4-tetrahydro-1-naphthyl)-2-imidazoline, 4° C., read-out: Ki (μM) mouse/rat.

Read-outs that look alike come from different tables or passages of the source.

In the case of `NC1=N[C@@H](Cc2cccc3ccccc23)CO1` [Example 48, (S)-4-Naphthalen-1-ylmethyl-4,5-dihydro-oxazol-2-ylamine], under setting [1], the Ki came to 0.0002 µM.
For the compound `NC1=N[C@@H](CCc2cccc(C(F)(F)F)c2Cl)CO1` [Example 151, (S)-4-[2-(2-Chloro-3-trifluoromethyl-phenyl)-ethyl]-4,5-dihydro-oxazol-2-ylamine], the Ki under setting [1] was found to be 0.001 µM.
`NC1=N[C@@H](c2ccc(Cl)c(F)c2)CO1` [Example 174, (S)-4-(4-Chloro-3-fluoro-phenyl)-4,5-dihydro-oxazol-2-ylamine] showed a Ki of 0.0006 µM.
Regarding `NC1=N[C@@H](CCc2cccc(Cl)c2Cl)CO1` [Example 149, (S)-4-[2-(2,3-Dichloro-phenyl)-ethyl]-4,5-dihydro-oxazol-2-ylamine], under setting [1], the Ki came to 0.0019 µM.
Turning to `NC1=N[C@@H](c2ccc(Br)cc2C(F)(F)F)CO1` [Example 338, (+)-(S)-4-(4-Bromo-2-trifluoromethyl-phenyl)-4,5-dihydro-oxazol-2-ylamine], the Ki under setting [1] was 0.0031 µM.
Take `NC1=NC(c2ccc(Br)c(Cl)c2)CO1` (racemic) [Example 326, (RS)-4-(4-Bromo-3-chloro-phenyl)-4,5-dihydro-oxazol-2-ylamine]: the Ki is 0.001 µM.
`COc1ccc([C@H]2COC(N)=N2)cc1C` [Example 129, (S)-4-(4-Methoxy-3-methyl-phenyl)-4,5-dihydro-oxazol-2-ylamine]: under setting [1], the Ki was found to be 0.0029 µM.
As to `NC1=N[C@@H](c2ccc(Br)cc2F)CO1` [Example 367, (+)-(S)-4-(4-Bromo-2-fluoro-phenyl)-4,5-dihydro-oxazol-2-ylamine], the Ki under setting [1] was found to be 0.001 µM.
Turning to `COc1cc(CC[C@H]2COC(N)=N2)ccc1F` [Example 86, (S)-4-[2-(4-Fluoro-3-methoxy-phenyl)-ethyl]-4,5-dihydro-oxazol-2-ylamine], under setting [1], the Ki came out at 0.0008 µM.
Still for that read-out and setting: the result for `NC1=N[C@@H](CCc2ccc(Cl)cc2F)CO1` [Example 132, (S)-4-[2-(4-Chloro-2-fluoro-phenyl)-ethyl]-4,5-dihydro-oxazol-2-ylamine] reads 0.0007 µM; that for `NC1=N[C@@H](CCc2cc(Cl)ccc2Cl)CO1` [Example 333, (S)-4-[2-(2,5-Dichloro-phenyl)-ethyl]-4,5-dihydro-oxazol-2-ylamine], 0.0021 µM; that for `NC1=N[C@@H](CCc2ccc(F)cc2)CO1` [Example 85, (S)-4-[2-(4-Fluoro-phenyl)-ethyl]-4,5-dihydro-oxazol-2-ylamine], 0.0011 µM.
Still for that read-out and setting: with `NC1=N[C@@H](COc2cccc(Cl)c2)CO1` [Example 343, (S)-4-(3-Chloro-phenoxymethyl)-4,5-dihydro-oxazol-2-ylamine] the figure was 0.0028 µM; with `NC1=N[C@H](CCc2ccccc2)CO1` [80 (R), (R)-4-phenethyl-4,5-dihydro-oxazol-2-ylamine], 0.0083 µM.
The compound `NC1=N[C@@H](c2ccc(F)cc2F)CO1` [37b (S), (S)-4-(2,4-Difluoro-phenyl)-4,5-dihydro-oxazol-2-ylamine] came in with a Ki of 0.0087 µM.
`Cc1c(F)cccc1C1COC(N)=N1` (racemic) [Example 365, (RS)-4-(3-Fluoro-2-methyl-phenyl)-4,5-dihydro-oxazol-2-ylamine] showed a Ki of 0.0029 µM.
`CC(Cc1ccccc1)[C@H]1COC(N)=N1` (stereo partly drawn) [Example 154, (S)-4-(1-Methyl-2-phenyl-ethyl)-4,5-dihydro-oxazol-2-ylamine]: the Ki under setting [1] worked out at 0.0034 µM.
Regarding `NC1=N[C@@H](COCc2ccccc2)CO1` [Example 350, (S)-4-Benzyloxymethyl-4,5-dihydro-oxazol-2-ylamine], the Ki under setting [1] stood at 0.0064 µM.
`Cc1ccc(Cl)cc1C1COC(N)=N1` (racemic) [Example 272, (RS)-4-(5-Chloro-2-methyl-phenyl)-4,5-dihydro-oxazol-2-ylamine]: the Ki was 0.0013 µM.
With `NC1=N[C@@H](c2cc(F)ccc2C(F)(F)F)CO1` [Example 259, (+)-(S)-4-(5-Fluoro-2-trifluoromethyl-phenyl)-4,5-dihydro-oxazol-2-ylamine], the Ki under setting [1] worked out at 0.0088 µM.
Consider `NC1=N[C@@H](CCc2ccc(Cl)cc2)CO1` [Example 256, (S)-4-[2-(4-Chloro-phenyl)-ethyl]-4,5-dihydro-oxazol-2-ylamine], for which, under setting [1], the Ki is 0.0006 µM.
Regarding `NC1=N[C@@H](c2cc(Cl)c(Cl)cc2C(F)(F)F)CO1` [Example 242, (+)-(S)-4-(4,5-Dichloro-2-trifluoromethyl-phenyl)-4,5-dihydro-oxazol-2-ylamine], the Ki under setting [1] was 0.0072 µM.
Regarding `COc1ccc(C2COC(N)=N2)cc1Cl` (racemic) [Example 36, (RS)-4-(3-Chloro-4-methoxyphenyl)-4,5-dihydro-oxazol-2-ylamine], the Ki was 0.0034 µM.
Same read-out and setting: with `NC1=NC(c2cccc3ccccc23)CO1` (racemic) [Example 34, (RS)-4-Naphthalen-1-yl-4,5-dihydro-oxazol-2-ylamine] the figure was 0.0011 µM; with `NC1=NC(c2ccc(Br)cc2Cl)CO1` (racemic) [Example 291, (RS)-4-(4-Bromo-2-chloro-phenyl)-4,5-dihydro-oxazol-2-ylamine], 0.0008 µM.
As for `CCC(C[C@H]1COC(N)=N1)c1ccccc1F` (stereo partly drawn) [Example 223, (S)-4-[2-(2-Fluoro-phenyl)-butyl]-4,5-dihydro-oxazol-2-ylamine], the Ki under setting [1] is 0.0059 µM.
On to `CCc1cc(Cl)ccc1C1COC(N)=N1` (racemic) [Example 344, (RS)-4-(4-Chloro-2-ethyl-phenyl)-4,5-dihydro-oxazol-2-ylamine], for which the Ki stood at 0.0025 µM.
In the case of `CCC(C[C@H]1COC(N)=N1)c1cccc(C(F)(F)F)c1` (stereo partly drawn) [Example 194, (S)-4-[2-(3-Trifluoromethyl-phenyl)-butyl]-4,5-dihydro-oxazol-2-ylamine], the Ki under setting [1] turned out to be 0.0073 µM.
Take `NC1=NC(c2cccc(Cl)c2)CO1` (racemic) [Example 185, (RS)-4-(3-Chloro-phenyl)-4,5-dihydro-oxazol-2-ylamine]: the Ki was determined as 0.005 µM.
`NC1=NC(c2ccc(Br)cc2F)CO1` (racemic) [Example 349, (RS)-4-(4-Bromo-2-fluoro-phenyl)-4,5-dihydro-oxazol-2-ylamine] yielded a Ki of 0.0023 µM.
Still for that read-out and setting: with `NC1=NC(c2ccc(Br)cc2C(F)(F)F)CO1` (racemic) [Example 302, (RS)-4-(4-Bromo-2-trifluoromethyl-phenyl)-4,5-dihydro-oxazol-2-ylamine] the figure was 0.0017 µM.
Regarding `NC1=N[C@@H](CCc2cccc(C(F)(F)F)c2)CO1` [Example 120, (S)-4-[2-(3-Trifluoromethyl-phenyl)-ethyl]-4,5-dihydro-oxazol-2-ylamine], the Ki under setting [1] came out at 0.0014 µM.
With `C[C@]1(c2ccc(Cl)cc2)COC(N)=N1` [Example 136, (S)-4-(4-Chloro-phenyl)-4-methyl-4,5-dihydro-oxazol-2-ylamine], the Ki under setting [1] amounted to 0.0038 µM.
`NC1=NC(c2ccc(-c3ccccc3)cc2)CO1` (racemic) [Example 10, (RS)-4-Biphenyl-4-yl-4,5-dihydro-oxazol-2-ylamine] yielded a Ki of 0.0025 µM.
Compound `Cc1ccccc1[C@H]1COC(N)=N1` [39a (S), (S)-4-o-Tolyl-4,5-dihydro-oxazol-2-ylamine] gave a Ki of 0.0025 µM.
`Cc1cc(C2(C)COC(N)=N2)c(F)cc1Cl` (racemic) [Example 274, (RS)-4-(4-Chloro-2-fluoro-5-methyl-phenyl)-4-methyl-4,5-dihydro-oxazol-2-ylamine]: the Ki under setting [1] turned out to be 0.0011 µM.
Take `NC1=N[C@@H](CCc2ccc(F)c(F)c2)CO1` [Example 89, (S)-4-[2-(3,4-Difluoro-phenyl)-ethyl]-4,5-dihydro-oxazol-2-ylamine]: the Ki under setting [1] was 0.0013 µM.
As for `NC1=N[C@@H](CCc2ccc(C(F)(F)F)c(F)c2)CO1` [Example 137, (S)-4-[2-(3-Fluoro-4-trifluoromethyl-phenyl)-ethyl]-4,5-dihydro-oxazol-2-ylamine], the Ki under setting [1] worked out at 0.0025 µM.

The record behind these values is patent publication US8604061B2, “2-aminooxazolines as TAAR1 ligands” (Hoffmann-La Roche Inc., priority 2007, dated 2013).
